In ChEMBL document CHEMBL1129022, “Synthesis and antibacterial activity of new tropone-substituted phenyloxazolidinone antibacterial agents 2. Modification of the phenyl ring the potentiating effect of fluorine substitution on in vivo activity” (1996) one finds ED50, MIC and inhibition data, which are given here for ten compounds.

Holding throughout (type): functional
Test [1] has as its system Mus musculus. As to the kind of experiment: Amount of drug required (mg/kg body weight/dose) to cure 50% of infected mice subjected to a lethal systemic infection with Staphylococcus aureus UC 9213.
Test [2] concerns Streptococcus pneumoniae. As to the kind of experiment: Compound was tested in vitro for antibacterial activity against Streptococcus pneumoniae UC 9912.
In test [3] the test system is Staphylococcus epidermidis. Briefly: Compound was tested in vitro for antibacterial activity against methicillin-resistant Staphylococcus epidermidis UC 12084.
Test [4] relates to Enterococcus faecalis. As to the kind of experiment: Compound was tested in vitro for antibacterial activity against Enterococcus faecalis UC 9217.
Test [5] has as its system Staphylococcus aureus. As to the kind of experiment: Compound was tested in vitro for antibacterial activity against methicillin-susceptible Staphylococcus aureus UC 9213.
The subject of test [6] is Staphylococcus aureus. As to the kind of experiment: Compound was tested in vitro for antibacterial activity against methicillin-resistant Staphylococcus aureus UC 6685.
Test [7] deals with Bacteroides fragilis. Briefly: Compound was tested in vitro for antibacterial activity against Bacteroides fragilis UC 12199.
Test [8] concerns Escherichia coli. As to the kind of experiment: Compound was tested in vitro for antibacterial activity against Escherichia coli extracts, using cell free prokaryotic transcription coupled translation (T/T) assay at 2 ug/mL.
Test [9] relates to Escherichia coli. Briefly: Compound was tested in vitro for antibacterial activity against Escherichia coli extracts, using cell free prokaryotic transcription coupled translation (T/T) assay. To be noted: dose or concentration not given here.
Test [10] relates to Mycobacterium tuberculosis. Briefly: Compound was tested in vitro for antibacterial activity against Mycobacterium tuberculosis H37Rv.

SMILES strings stand for the structures. Values after ≈ are worked out from the molar mass of the structure shown.

In test [1], `COc1ccc(-c2ccc(N3CC(CNC(C)=O)OC3=O)cc2F)ccc1=O` (centres undefined) gave a 50% effective dose (ED50) of 7.7 mg/kg. The MIC is 0.25 µg/mL (≈ 0.647 µM) in [2], 0.5 µg/mL (≈ 1.29 µM) in test [3], 1 µg/mL (≈ 2.59 µM) in test [4] and 1 µg/mL (≈ 2.59 µM) in test [5].
Regarding `C/N=c1\ccc(-c2ccc(N3C[C@H](CNC(C)=O)OC3=O)cc2F)ccc1O`, the minimum inhibitory concentration (MIC) in test [2] is 0.125 µg/mL (≈ 0.324 µM); in [3] it was 0.125 µg/mL (≈ 0.324 µM); in test [6], 0.25 µg/mL (≈ 0.649 µM); in [4], 0.25 µg/mL (≈ 0.649 µM); in [7], 2 µg/mL (≈ 5.19 µM); in test [5], 0.5 µg/mL (≈ 1.3 µM).
Take `COc1ccc(-c2ccc(N3CC(CNC(C)=O)OC3=O)cc2)ccc1=O` (centres undefined): the ED50 in [1] is 12.2 mg/kg. The minimum inhibitory concentration (MIC) in test [2] was determined as 0.25 µg/mL (≈ 0.679 µM); in test [3], 0.5 µg/mL (≈ 1.36 µM); in test [4], 1 µg/mL (≈ 2.71 µM); in test [5], 2 µg/mL (≈ 5.43 µM). In test [8], this compound gave an inhibition of 89%.
For the compound `COc1ccc(-c2c(F)cc(N3CC(CNC(C)=O)OC3=O)cc2F)ccc1=O` (centres undefined), the 50% effect level in test [1] (ED50) was put at a dose of 3.7 mg/kg. In addition, the minimum inhibitory concentration (MIC) worked out at 0.5 µg/mL (≈ 1.24 µM) in test [2], 0.5 µg/mL (≈ 1.24 µM) in test [3], 1 µg/mL (≈ 2.47 µM) in test [4] and 2 µg/mL (≈ 4.95 µM) in [5]. Besides, the inhibition in test [9] was 85%.
In the case of `COc1ccc(-c2ccc(N3CC(CNC(C)=O)OC3=O)cc2C(F)(F)F)ccc1=O` (centres undefined), the 50% effective dose (ED50) in [1] was over 20 mg/kg. In addition, the MIC in [2] stood at 4 µg/mL (≈ 9.17 µM); in test [3] it was 4 µg/mL (≈ 9.17 µM); in [4], 16 µg/mL (≈ 36.7 µM); in test [5] it was 32 µg/mL (≈ 73.3 µM). The inhibition in [8] stood at 58%.
Turning to `COc1ccc(-c2c(F)cc(N3C[C@H](CNC(C)=O)OC3=O)cc2F)ccc1=O`, in [1], the ED50 is 2.3 mg/kg. In addition, the MIC in [2] turned out to be 0.25 µg/mL (≈ 0.618 µM); in [3], 0.5 µg/mL (≈ 1.24 µM); in [6], 0.5 µg/mL (≈ 1.24 µM); in [4], 1 µg/mL (≈ 2.47 µM); in test [7], 8 µg/mL (≈ 19.8 µM); in test [5], 1 µg/mL (≈ 2.47 µM).
In the case of `COc1ccc(-c2ccc(N3CC(CNC(C)=O)OC3=O)cc2Cl)ccc1=O` (centres undefined), the ED50 in [1] is over 20 mg/kg. The MIC in test [2] was 1 µg/mL (≈ 2.48 µM); in test [3], 1 µg/mL (≈ 2.48 µM); in [4] it was 2 µg/mL (≈ 4.96 µM); in [5], 4 µg/mL (≈ 9.93 µM). The compound further registered an inhibition in test [8] of 71%.
In test [1], `CN[C@H](CC(C)C)C(=O)N[C@H]1C(=O)N[C@@H](CC(N)=O)C(=O)N[C@H]2C(=O)N[C@H]3C(=O)N[C@H](C(=O)N[C@H](C(=O)O)c4cc(O)cc(O)c4-c4cc3ccc4O)[C@H](O)c3ccc(c(Cl)c3)Oc3cc2cc(c3O[C@@H]2O[C@H](CO)[C@@H](O)[C@H](O)[C@H]2O[C@H]2C[C@](C)(N)[C@H](O)[C@H](C)O2)Oc2ccc(cc2Cl)[C@H]1O` [VANCOMYCIN] had a 50% effective dose (ED50) of 2.2 mg/kg. This compound had an MIC in [2] of 0.5 µg/mL (≈ 0.345 µM).
The compound `COc1ccc(-c2ccc(N3C[C@H](CNC(C)=O)OC3=O)cc2F)ccc1=O` came in with a 50% effective dose (ED50) in [1] of 4.1 mg/kg. Further, the minimal inhibitory concentration (MIC) in [2] worked out at 0.125 µg/mL (≈ 0.324 µM); in test [3], 0.25 µg/mL (≈ 0.647 µM); in [6], 0.5 µg/mL (≈ 1.29 µM); in test [4], 0.5 µg/mL (≈ 1.29 µM); in test [7], 8 µg/mL (≈ 20.7 µM); in test [5], 1 µg/mL (≈ 2.59 µM). The MIC in [10] is under 1 µg/mL.
Compound `C#CCNc1ccc(-c2ccc(N3C[C@H](CNC(C)=O)OC3=O)cc2F)ccc1=O` showed an ED50 in [1] of 1.3 mg/kg. For the same compound, the MIC turned out to be 0.125 µg/mL (≈ 0.305 µM) in test [2]; 0.25 µg/mL (≈ 0.611 µM) in test [3]; 0.5 µg/mL (≈ 1.22 µM) in test [6]; 0.5 µg/mL (≈ 1.22 µM) in [4]; 2 µg/mL (≈ 4.88 µM) in [7]; 1 µg/mL (≈ 2.44 µM) in test [5].
